In brackets after ≈: the same amount, converted by molar mass. Non-standard residues stand in square brackets, D forms with d. Residues, ends and D or L forms follow the SMILES beside them. Bip = N[C@@H](Cc1ccc(-c2ccccc2)cc1)C(=O)O; pY = N[C@@H](Cc1ccc(OP(=O)(O)O)cc1)C(=O)O; pT = C[C@@H](OP(=O)(O)O)[C@H](N)C(=O)O; 2Nal = N[C@@H](Cc1ccc2ccccc2c1)C(=O)O
How the values were obtained:
Escherichia coli [1] = assay: Antibacterial activity against Escherichia coli 780 incubated for 18 to 24 hrs by broth microdilution method; type: functional; settings: time 18-24 hrs
Staphylococcus aureus [2] = assay: Antibacterial activity against Staphylococcus aureus 794 incubated for 18 to 24 hrs by broth microdilution method; type: functional; settings: time 18-24 hrs
Staphylococcus aureus [3] = assay: Antibacterial activity against Staphylococcus aureus ATCC 25923 incubated for 18 to 24 hrs by broth microdilution method; type: functional; settings: time 18-24 hrs
Pseudomonas aeruginosa [4] = assay: Antibacterial activity against Pseudomonas aeruginosa 119 incubated for 18 to 24 hrs by broth microdilution method; type: functional; settings: time 18-24 hrs
[5] = Hemolytic activity in mouse erythrocyte incubated for 1 hr by microplate reader assay; type: toxicity, cell-based
Acinetobacter baumannii = assay: Antibacterial activity against Acinetobacter baumannii ATCC 19606 incubated for 18 to 24 hrs by broth microdilution method; type: functional; settings: time 18-24 hrs
Staphylococcus aureus [6] = assay: Antibacterial activity against methicillin resistant Staphylococcus aureus ATCC 33591 incubated for 18 to 24 hrs by broth microdilution method; type: functional; settings: time 18-24 hrs
Escherichia coli [7] = assay: Antibacterial activity against Escherichia coli ATCC 25922 incubated for 18 to 24 hrs by broth microdilution method; type: functional; settings: time 18-24 hrs
Klebsiella pneumoniae = assay: Antibacterial activity against Klebsiella pneumoniae ATCC 700603 incubated for 18 to 24 hrs by broth microdilution method; type: functional; settings: time 18-24 hrs
Staphylococcus aureus [8] = assay: Antibacterial activity against methicillin resistant Staphylococcus aureus 48 incubated for 18 to 24 hrs by broth microdilution method; type: functional; settings: time 18-24 hrs
Bacillus subtilis = assay: Antibacterial activity against Bacillus subtilis ATCC 23857 incubated for 18 to 24 hrs by broth microdilution method; type: functional; settings: time 18-24 hrs
Escherichia coli [9] = assay: Antibacterial activity against Escherichia coli 850 incubated for 18 to 24 hrs by broth microdilution method; type: functional; settings: time 18-24 hrs
Pseudomonas aeruginosa [10] = assay: Antibacterial activity against Pseudomonas aeruginosa ATCC 27853 incubated for 18 to 24 hrs by broth microdilution method; type: functional; settings: time 18-24 hrs
[11] = Cytotoxicity against HEK293T cells incubated for 1 hr by fluorescence based microplate reader assay; type: toxicity, cell-based, HEK-293T; settings: human

SMILES | MIC (Escherichia coli [1]) [µM] | MIC (Staphylococcus aureus [2]) [µM] | MIC (Staphylococcus aureus [3]) [µM] | MIC (Pseudomonas aeruginosa [4]) [µM] | MHC [5] [µM] | MIC (Acinetobacter baumannii) [µM] | MIC (Staphylococcus aureus [6]) [µM] | MIC (Escherichia coli [7]) [µM] | MIC (Klebsiella pneumoniae) [µM] | MIC (Staphylococcus aureus [8]) [µM] | MIC (Bacillus subtilis) [µM] | MIC (Escherichia coli [9]) [µM] | MIC (Pseudomonas aeruginosa [10]) [µM] | CC50 at 1 h [11] [µM]
CC(C)C[C@H](NC(=O)[C@H](CC(C)C)NC(=O)[C@H](Cc1ccc(OP(=O)(O)O)cc1)NC(=O)[C@H](CCCCN)NC(=O)[C@H](Cc1c[nH]c2ccccc12)NC(=O)[C@H](CCCNC(=N)N)NC(=O)[C@H](CCCCN)NC(=O)[C@H](CC(C)C)NC(=O)[C@H](CC(C)C)NC(=O)CN)C(N)=O (H-GLLKRWK[pY]LL-NH2) | 64 (≈ 87.6 µg/mL) | 32 (≈ 43.8 µg/mL) | > 128 | 128 (≈ 175 µg/mL) | > 256 | 64 (≈ 87.6 µg/mL) | > 128 | 64 (≈ 87.6 µg/mL) | 128 (≈ 175 µg/mL) | > 128 | 64 (≈ 87.6 µg/mL) | 64 (≈ 87.6 µg/mL) | 128 (≈ 175 µg/mL) | > 128
CC(C)C[C@H](NC(=O)[C@H](CC(C)C)NC(=O)[C@@H](NC(=O)[C@H](CCCCN)NC(=O)[C@H](Cc1ccc2ccccc2c1)NC(=O)[C@H](CCCNC(=N)N)NC(=O)[C@H](CCCCN)NC(=O)[C@H](CC(C)C)NC(=O)[C@H](CC(C)C)NC(=O)CN)[C@@H](C)O)C(N)=O (H-GLLKR[2Nal]KTLL-NH2) | 8 (≈ 9.9 µg/mL) | 8 (≈ 9.9 µg/mL) | 16 (≈ 19.8 µg/mL) | 16 (≈ 19.8 µg/mL) | > 256 | 32 (≈ 39.6 µg/mL) | 16 (≈ 19.8 µg/mL) | 16 (≈ 19.8 µg/mL) | 16 (≈ 19.8 µg/mL) | 16 (≈ 19.8 µg/mL) | 4 (≈ 4.95 µg/mL) | 16 (≈ 19.8 µg/mL) | 4 (≈ 4.95 µg/mL) | 177
CC(C)C[C@H](NC(=O)[C@H](CC(C)C)NC(=O)[C@@H](NC(=O)[C@H](CCCCN)NC(=O)[C@H](Cc1ccc2ccccc2c1)NC(=O)[C@H](CCCNC(=N)N)NC(=O)[C@H](CCCCN)NC(=O)[C@H](CC(C)C)NC(=O)[C@H](CC(C)C)NC(=O)CN)[C@@H](C)OP(=O)(O)O)C(N)=O (H-GLLKR[2Nal]K[pT]LL-NH2) | > 128 | 128 (≈ 169 µg/mL) | > 128 | 128 (≈ 169 µg/mL) | > 256 | 128 (≈ 169 µg/mL) | > 128 | > 128 | > 128 | > 128 | 128 (≈ 169 µg/mL) | 128 (≈ 169 µg/mL) | 128 (≈ 169 µg/mL) | > 128
CC(C)C[C@H](NC(=O)[C@H](CC(C)C)NC(=O)[C@@H](NC(=O)[C@H](CCCCN)NC(=O)[C@H](Cc1ccc(-c2ccccc2)cc1)NC(=O)[C@H](CCCNC(=N)N)NC(=O)[C@H](CCCCN)NC(=O)[C@H](CC(C)C)NC(=O)[C@H](CC(C)C)NC(=O)CN)[C@@H](C)O)C(N)=O (H-GLLKR[Bip]KTLL-NH2) | 8 (≈ 10.1 µg/mL) | 8 (≈ 10.1 µg/mL) | 16 (≈ 20.2 µg/mL) | 16 (≈ 20.2 µg/mL) | 145.56 | 16 (≈ 20.2 µg/mL) | 8 (≈ 10.1 µg/mL) | 8 (≈ 10.1 µg/mL) | 8 (≈ 10.1 µg/mL) | 8 (≈ 10.1 µg/mL) | 4 (≈ 5.05 µg/mL) | 8 (≈ 10.1 µg/mL) | 4 (≈ 5.05 µg/mL) | 127
O=C(O)c1cn(C2CC2)c2cc(N3CCNCC3)c(F)cc2c1=O [CIPROFLOXACIN] | – | – | 16 (≈ 5.3 µg/mL) | – | – | 16 (≈ 5.3 µg/mL) | – | < 1 | – | – | 2 (≈ 0.663 µg/mL) | – | 4 (≈ 1.33 µg/mL) | –
C[C@@H](O)[C@H]1C(=O)N2C(C(=O)O)=C(S[C@@H]3CN[C@H](C(=O)N(C)C)C3)[C@H](C)[C@H]12 [MEROPENEM] | < 1 | < 1 | < 1 | 8 (≈ 3.07 µg/mL) | – | 2 (≈ 0.767 µg/mL) | 64 (≈ 24.5 µg/mL) | < 1 | 2 (≈ 0.767 µg/mL) | 128 (≈ 49.1 µg/mL) | < 1 | < 1 | 1 (≈ 0.383 µg/mL) | –
COc1cccc(OC)c1C(=O)N[C@@H]1C(=O)N2[C@@H]1SC(C)(C)[C@@H]2C(=O)O [METHICILLIN] | > 128 | > 128 | 8 (≈ 3.04 µg/mL) | > 128 | – | > 128 | > 128 | > 128 | > 128 | > 128 | < 1 | > 128 | > 128 | –

From ChEMBL document CHEMBL6092167, “Phosphorylation as an Effective Tool to Improve Stability and Reduce Toxicity of Antimicrobial Peptides” (J Med Chem, 2024)
